Source: ChEMBL document CHEMBL1201862, “PubChem BioAssay data set” (2004)
Calls of active or inactive are those of the source.

Key:
[1] = molecular target: Serine/threonine-protein phosphatase PP1-alpha catalytic subunit (Homo sapiens, UniProt P62136); assay: inhibition of protein phosphatase 1 activity – biochemical, fluorescence, dose response (AID 2394)
[2] = molecular target: T1, Zinc finger protein mex-5 (Caenorhabditis elegans, UniProt Q9XUB2); assay: potency of MEX-5 RNA-binding blockers – biochemical, C. elegans, fluorescence polarization, dose response (AID 1960)
T1 sequence (Q9XUB2 whole entry): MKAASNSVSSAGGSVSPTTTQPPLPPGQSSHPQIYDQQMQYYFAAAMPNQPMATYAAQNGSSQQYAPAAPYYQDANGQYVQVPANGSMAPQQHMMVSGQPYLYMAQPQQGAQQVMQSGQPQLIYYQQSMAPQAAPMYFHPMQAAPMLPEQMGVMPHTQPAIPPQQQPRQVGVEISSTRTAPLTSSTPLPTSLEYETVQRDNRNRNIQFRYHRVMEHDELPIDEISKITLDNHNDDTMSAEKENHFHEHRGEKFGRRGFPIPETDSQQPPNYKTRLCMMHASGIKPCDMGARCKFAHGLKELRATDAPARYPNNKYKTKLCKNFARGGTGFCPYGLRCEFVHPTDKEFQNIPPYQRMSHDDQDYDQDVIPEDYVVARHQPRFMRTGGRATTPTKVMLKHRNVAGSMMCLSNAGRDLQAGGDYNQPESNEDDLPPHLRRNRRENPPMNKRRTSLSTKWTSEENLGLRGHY

[3] = molecular target: T2, Apoptotic protease-activating factor 1 (Homo sapiens, UniProt O14727); type: functional
T2 sequence (O14727 whole entry): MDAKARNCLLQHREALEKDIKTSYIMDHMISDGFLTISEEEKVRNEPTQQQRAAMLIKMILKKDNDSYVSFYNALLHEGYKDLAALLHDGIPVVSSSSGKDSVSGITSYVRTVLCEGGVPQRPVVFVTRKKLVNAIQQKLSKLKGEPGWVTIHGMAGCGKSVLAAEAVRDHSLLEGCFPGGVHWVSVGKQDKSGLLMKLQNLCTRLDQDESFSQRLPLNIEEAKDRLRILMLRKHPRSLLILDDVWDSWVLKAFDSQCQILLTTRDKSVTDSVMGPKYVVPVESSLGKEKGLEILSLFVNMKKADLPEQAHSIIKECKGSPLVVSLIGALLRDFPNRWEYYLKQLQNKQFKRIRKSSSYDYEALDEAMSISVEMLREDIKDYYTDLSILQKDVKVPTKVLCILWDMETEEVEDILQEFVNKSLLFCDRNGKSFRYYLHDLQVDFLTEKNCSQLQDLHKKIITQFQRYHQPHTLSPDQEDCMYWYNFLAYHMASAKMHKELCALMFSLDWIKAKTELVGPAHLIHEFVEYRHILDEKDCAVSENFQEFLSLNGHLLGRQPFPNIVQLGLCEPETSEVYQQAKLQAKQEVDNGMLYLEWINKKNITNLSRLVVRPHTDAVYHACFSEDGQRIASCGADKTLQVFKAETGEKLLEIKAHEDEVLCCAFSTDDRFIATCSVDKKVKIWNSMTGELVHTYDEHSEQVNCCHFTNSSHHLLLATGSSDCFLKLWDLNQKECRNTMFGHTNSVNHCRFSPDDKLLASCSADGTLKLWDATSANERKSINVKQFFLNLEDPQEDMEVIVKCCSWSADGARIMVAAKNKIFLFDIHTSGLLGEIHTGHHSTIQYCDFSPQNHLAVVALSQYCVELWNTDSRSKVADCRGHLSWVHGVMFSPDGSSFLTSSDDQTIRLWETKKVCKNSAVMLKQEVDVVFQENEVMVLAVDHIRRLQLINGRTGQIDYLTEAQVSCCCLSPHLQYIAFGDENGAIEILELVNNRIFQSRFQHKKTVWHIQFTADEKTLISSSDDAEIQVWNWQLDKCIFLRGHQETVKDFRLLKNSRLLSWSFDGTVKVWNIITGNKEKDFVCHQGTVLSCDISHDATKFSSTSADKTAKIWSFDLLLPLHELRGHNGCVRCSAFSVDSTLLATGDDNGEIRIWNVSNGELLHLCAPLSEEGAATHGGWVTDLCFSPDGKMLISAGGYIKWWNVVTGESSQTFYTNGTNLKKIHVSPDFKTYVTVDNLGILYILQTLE

[4] = molecular target: T3, Mitochondrial peptide methionine sulfoxide reductase (Bos taurus, UniProt P54149); type: functional;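 also: absorbance read-out, biochemical high-throughput dose-response screen for MsrA inhibitors, confirmatory; recombinant bovine MsrA coupled to E. coli TrxB with NADPH and selenocystamine; potency is for inhibitors of MsrA activity on DMSO substrate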
T3 sequence (P54149 whole entry): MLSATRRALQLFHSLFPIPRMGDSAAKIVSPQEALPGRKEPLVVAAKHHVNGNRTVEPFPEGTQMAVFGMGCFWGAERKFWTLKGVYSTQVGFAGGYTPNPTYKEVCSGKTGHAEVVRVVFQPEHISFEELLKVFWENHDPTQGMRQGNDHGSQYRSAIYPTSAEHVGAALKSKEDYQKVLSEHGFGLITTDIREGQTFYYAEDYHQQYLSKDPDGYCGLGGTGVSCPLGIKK

[5] = molecular target: Sphingosine 1-phosphate receptor 2 (Homo sapiens, UniProt O95136); assay: Dose Response Cell Based Assay for Antagonists of the S1P2 Receptor. [Related pubchem assays: 856, 736 ]; type: functional
Sequence of Sphingosine 1-phosphate receptor 2 (O95136 whole entry): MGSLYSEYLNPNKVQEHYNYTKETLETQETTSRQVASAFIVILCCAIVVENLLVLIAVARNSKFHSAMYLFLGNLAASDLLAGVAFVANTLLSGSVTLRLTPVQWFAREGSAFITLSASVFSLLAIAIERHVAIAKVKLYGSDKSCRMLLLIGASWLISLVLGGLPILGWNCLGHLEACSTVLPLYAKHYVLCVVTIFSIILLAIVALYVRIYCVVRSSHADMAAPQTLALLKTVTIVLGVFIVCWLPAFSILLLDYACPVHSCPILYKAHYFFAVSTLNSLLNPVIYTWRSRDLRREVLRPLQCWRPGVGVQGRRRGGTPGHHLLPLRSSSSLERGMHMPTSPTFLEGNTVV

[6] = Luminescence Cell-Based Dose Response HTS to Identify Inhibitors of 5'UTR Stem-Loop Driven Prion Protein mRNA Translation in H4 Neuroglioblastoma Cells. [Related pubchem assays: 1827 (Project Summary), 1813 (Primary HTS)]; type: functional
[7] = molecular target: T4, Beta-galactosidase (Escherichia coli, UniProt Q8VNN2); assay: PubChem AID 485352; type: functional
T4 sequence (Q8VNN2 whole entry): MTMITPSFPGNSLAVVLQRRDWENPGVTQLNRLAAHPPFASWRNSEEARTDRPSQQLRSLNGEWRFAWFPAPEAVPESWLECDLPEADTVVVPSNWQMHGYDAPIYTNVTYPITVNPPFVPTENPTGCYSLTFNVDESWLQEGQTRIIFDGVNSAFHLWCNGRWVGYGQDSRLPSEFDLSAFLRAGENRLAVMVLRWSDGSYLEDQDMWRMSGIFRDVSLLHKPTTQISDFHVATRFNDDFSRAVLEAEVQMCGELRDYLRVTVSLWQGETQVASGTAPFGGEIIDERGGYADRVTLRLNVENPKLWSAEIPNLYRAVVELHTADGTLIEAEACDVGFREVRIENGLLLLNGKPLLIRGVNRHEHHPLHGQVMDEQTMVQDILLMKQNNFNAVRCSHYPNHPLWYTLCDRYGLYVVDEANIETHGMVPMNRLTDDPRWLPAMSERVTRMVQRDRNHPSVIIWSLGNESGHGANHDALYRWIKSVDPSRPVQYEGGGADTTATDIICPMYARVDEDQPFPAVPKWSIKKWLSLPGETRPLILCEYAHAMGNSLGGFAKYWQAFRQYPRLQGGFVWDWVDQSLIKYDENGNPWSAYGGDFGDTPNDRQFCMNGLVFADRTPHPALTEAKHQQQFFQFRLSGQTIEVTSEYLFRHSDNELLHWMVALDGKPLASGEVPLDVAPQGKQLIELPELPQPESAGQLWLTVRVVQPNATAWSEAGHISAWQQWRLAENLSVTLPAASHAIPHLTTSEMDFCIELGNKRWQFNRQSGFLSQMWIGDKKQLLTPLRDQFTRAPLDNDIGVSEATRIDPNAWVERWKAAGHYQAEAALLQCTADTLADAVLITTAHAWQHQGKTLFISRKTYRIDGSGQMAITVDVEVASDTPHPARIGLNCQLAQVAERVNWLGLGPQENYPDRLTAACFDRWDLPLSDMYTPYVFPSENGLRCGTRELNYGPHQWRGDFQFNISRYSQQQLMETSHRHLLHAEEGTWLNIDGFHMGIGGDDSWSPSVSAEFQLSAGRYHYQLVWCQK

[8] = molecular target: Luciferin 4-monooxygenase (Photinus pyralis, UniProt P08659); assay: inhibition of purified Photinus pyralis luciferase – biochemical, luminescence, dose response (AID 1891)
Sequence of Luciferin 4-monooxygenase (P08659 whole entry): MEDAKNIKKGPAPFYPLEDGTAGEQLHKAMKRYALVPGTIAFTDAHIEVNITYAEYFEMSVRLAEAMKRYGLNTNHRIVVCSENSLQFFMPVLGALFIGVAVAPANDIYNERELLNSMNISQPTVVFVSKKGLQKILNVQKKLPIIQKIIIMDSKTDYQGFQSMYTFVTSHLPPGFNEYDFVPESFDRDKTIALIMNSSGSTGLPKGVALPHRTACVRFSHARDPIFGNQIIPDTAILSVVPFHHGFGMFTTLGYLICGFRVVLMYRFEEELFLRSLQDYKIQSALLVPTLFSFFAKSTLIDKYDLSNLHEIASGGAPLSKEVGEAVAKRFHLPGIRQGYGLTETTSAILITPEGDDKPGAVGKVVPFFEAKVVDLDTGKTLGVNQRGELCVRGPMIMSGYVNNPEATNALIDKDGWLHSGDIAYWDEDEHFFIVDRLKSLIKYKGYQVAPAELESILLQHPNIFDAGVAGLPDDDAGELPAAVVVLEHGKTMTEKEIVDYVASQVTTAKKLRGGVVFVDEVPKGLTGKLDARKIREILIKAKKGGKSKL

[9] = Luminescence Cell-Based Dose Confirmation HTS to Identify Inhibitors of Platelet Dense Granule Release. [Related pubchem assays: 1663 (Primary HTS), 1678 (Summary of Project)]; type: functional
[10] = Luminescence-based dose response cell-based high throughput screening assay for cytotoxic compounds using the IEC-6 intestinal epithelial cell line. [Related pubchem assays: 1858 (Summary AID.), 1825 (Counterscreen.), 1907 (Confirmation screen.)]; type: functional
[11] = molecular target: T5, Kappa-type opioid receptor (Homo sapiens, UniProt P41145); type: functional
T5 sequence (P41145 whole entry): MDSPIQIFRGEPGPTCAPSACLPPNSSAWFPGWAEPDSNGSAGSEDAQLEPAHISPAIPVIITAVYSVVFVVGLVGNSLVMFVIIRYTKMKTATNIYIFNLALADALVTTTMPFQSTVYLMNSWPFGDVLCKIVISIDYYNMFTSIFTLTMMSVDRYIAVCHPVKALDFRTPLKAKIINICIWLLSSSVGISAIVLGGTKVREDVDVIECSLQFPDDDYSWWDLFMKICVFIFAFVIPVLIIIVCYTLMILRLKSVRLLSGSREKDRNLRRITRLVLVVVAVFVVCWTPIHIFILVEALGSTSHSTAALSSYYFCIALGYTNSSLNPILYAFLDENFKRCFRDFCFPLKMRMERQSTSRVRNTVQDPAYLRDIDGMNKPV

[12] = molecular target: T4, Beta-galactosidase; type: functional
[13] = molecular target: T5, Kappa-type opioid receptor; type: functional; remark: listed apart in the source
[14] = molecular target: T6, Sentrin-specific protease 8 (Homo sapiens, UniProt Q96LD8); type: functional;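 also: kinetic enzyme assay of SENP8 cleaving a Nedd8 protein substrate, dose-response confirmation of screening hits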
T6 sequence (Q96LD8 whole entry): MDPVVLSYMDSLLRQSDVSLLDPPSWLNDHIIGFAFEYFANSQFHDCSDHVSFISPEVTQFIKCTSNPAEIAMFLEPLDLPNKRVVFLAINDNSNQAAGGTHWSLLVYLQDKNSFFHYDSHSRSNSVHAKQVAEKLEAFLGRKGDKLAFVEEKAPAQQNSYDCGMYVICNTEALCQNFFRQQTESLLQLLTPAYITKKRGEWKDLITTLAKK

Sequence of Serine/threonine-protein phosphatase PP1-alpha catalytic subunit (P62136 whole entry): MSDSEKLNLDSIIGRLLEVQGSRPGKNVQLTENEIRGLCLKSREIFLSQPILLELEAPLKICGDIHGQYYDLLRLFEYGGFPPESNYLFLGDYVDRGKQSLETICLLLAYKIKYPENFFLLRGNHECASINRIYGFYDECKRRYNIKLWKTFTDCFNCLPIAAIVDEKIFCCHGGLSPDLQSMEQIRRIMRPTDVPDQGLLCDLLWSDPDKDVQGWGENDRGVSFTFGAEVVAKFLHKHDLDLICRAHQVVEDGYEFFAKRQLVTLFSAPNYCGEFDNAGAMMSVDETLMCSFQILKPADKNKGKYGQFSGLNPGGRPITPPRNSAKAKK

Cc1ccc(S(=O)(=O)/N=C2\C=C(Nc3cccc(C(=O)O)c3)C(=O)c3ccccc32)c(C)c1
IC50 [1]: 27.1 µM (not active)
EC50 [2]: 31.7 µM (active)
IC50 [3]: 4.11 µM (active)
IC50 [4]: 74.5 µM (inactive)

COc1ccc(NC(=O)/C(Cl)=C(/Cl)[S+]([O-])Cc2ccccc2)cn1 (centres undefined)
IC50 [5]: 0.942 µM (active)
EC50 [6]: 0.998 µM (active)
EC50 [7]: > 40 µM (inactive)
EC50 [8]: > 112 µM (not active)
EC50 [9]: 6.34 µM (active)
IC50 [10]: 1.27 µM (active)
IC50 [11]: 7.1 µM (active)
EC50 [12]: > 31.5 µM (inactive)
IC50 [13]: 7.62 µM

Nc1ccc(N2CCCCC2)c2nonc12
IC50 [14]: 3.28 µM (active)
